Measurements taken from patent US20230285347A1, “Preterm Labour with Prostaglandin E2 Receptor Agonists” (IMPERIAL COLLEGE INNOVATIONS LIMITED, priority 2020, published 2023).

Target: T1, EP2 (Homo sapiens, UniProt P43116)
T1 construct: primary human myocytes cultured from term pregnant, non-labouring, myometrium; endogenous in cells; host or cells: primary human myometrial cells (myocytes) cultured from pregnant myometrium
Assay: COX-2 protein by western blot in myometrial cells from different labouring groups
Type: cell-based
Conditions: butaprost 10 μM, 6 hours
Protocol: L=non-labouring, L+E=early stage spontaneous labour, L+L=late stage spontaneous labour, L+SE=early stage induced labour, L+SL=late stage induced labour. (A) COX-2 protein (70 kB) determined by western blot and normalised to GAPDH protein (38 kB) in different labouring groups following 6 hour butaprost (10 μM) stimulation. Data shown as mean±SEM, n=5. Groups compared using one-way ANOVA with Dunnett's multiple comparison post-hoc test: *p<0.05. (B) Representative western blot for FIG. 9A.
Myometrial cells taken from women in different labouring groups were treated for 6-hours with butaprost. Confluent myometrial cells were lysed in RIPA buffer containing 1% Triton x-100, 1% Sodium deoxycholate, 0.1% SDS, 150 mM NaCl, 10 mM Tris, 1 mM EDTA plus 1 mM sodium orthovanadate and one Pierce EDTA-Free protease inhibitor mini tablet. 20-40 μg of lysate as determined via Bradford assay plus Laemmli buffer (0.5M pH 6.8 Tris, 10% SDS, 1% Bromophenol blue, 2% B-ME, 20% Glycerol) were separated with 1×SDS running buffer at 140V on SDS-PAGE gels polymerized with TEMED and ammonium persulfate: separating gel (40% poly, 1M pH 8.8 Tris, 10% SDS), […] (40% poly, 1M Tris (pH 6.8), 10% SDS). Proteins were transferred onto nitrocellulose membranes before blocking in 5% Milk TBS-T for 30 minutes and incubated overnight at 4° C. with primary antibody and blocking buffer (1:1000). Membranes were then incubated in TBS-T with appropriate secondary antibody for 1-3 hours (1:2000) before signal detection using HRP substrate and chemiluminescent imager (ImageQuant LAS 4000).

T1 sequence (P43116 whole entry): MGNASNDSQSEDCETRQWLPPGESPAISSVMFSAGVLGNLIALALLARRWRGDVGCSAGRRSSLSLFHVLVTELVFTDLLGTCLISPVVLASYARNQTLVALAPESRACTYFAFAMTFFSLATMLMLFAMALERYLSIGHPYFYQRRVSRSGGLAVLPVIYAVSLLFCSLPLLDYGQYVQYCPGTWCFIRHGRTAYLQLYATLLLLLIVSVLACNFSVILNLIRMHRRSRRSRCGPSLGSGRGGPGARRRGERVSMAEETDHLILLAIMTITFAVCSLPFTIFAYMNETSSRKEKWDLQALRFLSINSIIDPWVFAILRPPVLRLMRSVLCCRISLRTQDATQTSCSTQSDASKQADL

## CCCC1([C@H](O)C/C=C/[C@H]2[C@H](O)CC(=O)[C@@H]2CCCCCCC(=O)OC)CCC1 [butaprost]
All early stage labouring groups
  agonist-induced COX-2 in early stage labouring groups: significant increase in all early stage labouring groups
Either late stage labouring group
  agonist-induced COX-2 increase in late stage labouring groups: not apparent in either late stage labouring group
non-labouring and labouring groups, normalised to GAPDH
  agonist-induced increases in COX-2 across groups: maintained across non-labouring and labouring groups
